In patent US8440710B2, “HSL inhibitors useful in the treatment of diabetes” (Hoffmann-La Roche Inc., priority 2009, dated 2013):

Target: T1, human HSL (Homo sapiens, UniProt Q05469)
T1 construct: generate a full length human HSL ORF with a 3′-His6 tag; made in house; host or cells: High 5 insect cells (baculovirus, pFast-BAC)
T1 sequence (Q05469 1-1076): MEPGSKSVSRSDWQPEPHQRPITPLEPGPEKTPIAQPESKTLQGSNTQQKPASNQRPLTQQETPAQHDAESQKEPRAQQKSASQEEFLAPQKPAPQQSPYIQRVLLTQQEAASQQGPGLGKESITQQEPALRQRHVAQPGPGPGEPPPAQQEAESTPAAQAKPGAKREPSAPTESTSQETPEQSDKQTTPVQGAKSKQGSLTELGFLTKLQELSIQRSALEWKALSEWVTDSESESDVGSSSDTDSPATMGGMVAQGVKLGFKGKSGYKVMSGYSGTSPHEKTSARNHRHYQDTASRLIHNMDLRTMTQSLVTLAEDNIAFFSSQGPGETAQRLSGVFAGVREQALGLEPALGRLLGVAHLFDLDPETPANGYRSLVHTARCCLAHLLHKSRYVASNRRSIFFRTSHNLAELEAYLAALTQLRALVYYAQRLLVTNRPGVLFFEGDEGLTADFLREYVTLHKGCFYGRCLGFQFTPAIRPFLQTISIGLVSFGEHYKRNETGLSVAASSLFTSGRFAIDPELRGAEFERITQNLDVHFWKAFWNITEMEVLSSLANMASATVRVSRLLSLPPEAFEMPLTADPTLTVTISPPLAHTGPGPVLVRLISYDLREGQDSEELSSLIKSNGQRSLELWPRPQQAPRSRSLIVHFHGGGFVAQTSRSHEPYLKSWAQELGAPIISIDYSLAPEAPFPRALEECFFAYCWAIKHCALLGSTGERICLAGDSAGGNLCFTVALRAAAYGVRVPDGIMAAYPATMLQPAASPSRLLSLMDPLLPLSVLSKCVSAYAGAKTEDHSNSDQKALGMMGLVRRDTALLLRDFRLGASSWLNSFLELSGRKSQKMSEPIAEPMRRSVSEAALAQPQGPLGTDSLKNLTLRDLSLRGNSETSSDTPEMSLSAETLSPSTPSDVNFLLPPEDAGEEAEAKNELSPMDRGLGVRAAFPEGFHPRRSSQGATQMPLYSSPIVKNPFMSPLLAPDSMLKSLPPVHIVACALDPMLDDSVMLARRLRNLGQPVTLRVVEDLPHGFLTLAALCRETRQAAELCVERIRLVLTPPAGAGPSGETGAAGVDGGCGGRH
Assay: Human Hormone-Sensitive Lipase (HSL) enzyme inhibition assay (colorimetric, DMPT substrate)
Type: biochemical
Conditions: human full length HSL-His6, 2,3-dimercapto-1-propanol tributyrate substrate, 37° C. 20 minutes, absorbance at 405 nm; read-out: HSL hum IC50
Procedure, shortened: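 Full-length human HSL with C-terminal His6, expressed in baculovirus-infected High 5 cells and Ni-NTA purified, was added (15 ug/ml stock) to 1.5 mM DMPT in 100 mM MOPS pH 7.2, 0.2 mg/ml fatty acid-free BSA containing compound. After 20 min at 37 °C, DTNB with SDS/Triton X-100 was added; A405 read after 15 min at RT.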

Row | SMILES | IC50
1 | O=C1N(c2ccc(OC(F)(F)F)cc2)CC[C@]12CC[C@](O)(Cc1ccccc1)CC2 [Example 63, (5α,8β)-8-Benzyl-8-hydroxy-2-(4-trifluoromethoxy-phenyl)-2-aza-spiro[4.5]decan-1-one] | 600 nM
2 | C=CCC[C@]1(O)CC[C@]2(CCN(c3ccc(OC(F)(F)F)cc3)C2=O)CC1 [Example 64, (5α,8α)-8-But-3-enyl-8-hydroxy-2-(4-trifluoromethoxy-phenyl)-2-aza-spiro[4.5]decan-1-one] | 30 nM
3 | C=CCC[C@]1(O)CC[C@@]2(CCN(c3ccc(OC(F)(F)F)cc3)C2=O)CC1 [Example 65, (5α,8β)-8-But-3-enyl-8-hydroxy-2-(4-trifluoromethoxy-phenyl)-2-aza-spiro[4.5]decan-1-one] | 440 nM
4 | CCCC[C@]1(O)CC[C@]2(CCN(c3ccc(OC(F)(F)F)cc3)C2=O)CC1 [Example 66, (5α,8α)-8-Butyl-8-hydroxy-2-(4-trifluoromethoxy-phenyl)-2-aza-spiro[4.5]decan-1-one] | 30 nM
5 | CCCC[C@]1(O)CC[C@@]2(CCN(c3ccc(OC(F)(F)F)cc3)C2=O)CC1 [Example 67, (5α,8β)-8-Butyl-8-hydroxy-2-(4-trifluoromethoxy-phenyl)-2-aza-spiro[4.5]decan-1-one] | 11100 nM
6 | CC(C)[C@]1(O)CC[C@]2(CCN(c3ccc(OC(F)(F)F)cc3)C2=O)CC1 [Example 68, (5α,8α)-8-Hydroxy-8-isopropyl-2-(4-trifluoromethoxy-phenyl)-2-aza-spiro[4.5]decan-1-one] | 30 nM
7 | CC(C)[C@]1(O)CC[C@@]2(CCN(c3ccc(OC(F)(F)F)cc3)C2=O)CC1 [Example 69, (5α,8β)-8-Hydroxy-8-isopropyl-2-(4-trifluoromethoxy-phenyl)-2-aza-spiro[4.5]decan-1-one] | 560 nM
8 | O=C1N(c2ccc(OC(F)(F)F)cc2)CC[C@]12CC[C@@](O)(C1CC1)CC2 [Example 70, (5α,8α)-8-Cyclopropyl-8-hydroxy-2-(4-trifluoromethoxy-phenyl)-2-aza-spiro[4.5]decan-1-one] | 130 nM
9 | COCC#C[C@]1(O)CC[C@]2(CCN(c3ccc(OC(F)(F)F)cc3)C2=O)CC1 [Example 71, (5α,8α)-8-Hydroxy-8-(3-methoxy-prop-1-ynyl)-2-(4-trifluoromethoxy-phenyl)-2-aza-spiro[4.5]decan-1-one] | 40 nM
10 | COCC#C[C@]1(O)CC[C@@]2(CCN(c3ccc(OC(F)(F)F)cc3)C2=O)CC1 [Example 72, (5α,8β)-8-Hydroxy-8-(3-methoxy-prop-1-ynyl)-2-(4-trifluoromethoxy-phenyl)-2-aza-spiro[4.5]decan-1-one] | 710 nM
11 | C[C@]1(O)CC[C@]2(CCN(c3ccc(C4CC4)cc3)C2=O)CC1 [Example 73, (5α,8α)-2-(4-Cyclopropyl-phenyl)-8-hydroxy-8-methyl-2-aza-spiro[4.5]decan-1-one] | 150 nM
12 | C[C@]1(O)CC[C@@]2(CCN(c3ccc(C4CC4)cc3)C2=O)CC1 [Example 74, (5α,8β)-2-(4-Cyclopropyl-phenyl)-8-hydroxy-8-methyl-2-aza-spiro[4.5]decan-1-one] | 800 nM
13 | CCC[C@]1(O)CC[C@]2(CCN(c3ccc(C4CC4)cc3)C2=O)CC1 [Example 75, (5α,8α)-2-(4-Cyclopropyl-phenyl)-8-hydroxy-8-propyl-2-aza-spiro[4.5]decan-1-one] | 30 nM
14 | CCC[C@]1(O)CC[C@@]2(CCN(c3ccc(C4CC4)cc3)C2=O)CC1 [Example 76, (5α,8β)-2-(4-Cyclopropyl-phenyl)-8-hydroxy-8-propyl-2-aza-spiro[4.5]decan-1-one] | 190 nM
15 | C[C@]1(O)CC[C@]2(CCN(c3ccc(CC(F)(F)F)cc3)C2=O)CC1 [Example 77, (5α,8α)-8-Hydroxy-8-methyl-2-[4-(2,2,2-trifluoro-ethyl)-phenyl]-2-aza-spiro[4.5]decan-1-one] | 50 nM
16 | C[C@]1(O)CC[C@@]2(CCN(c3ccc(CC(F)(F)F)cc3)C2=O)CC1 [Example 78, (5α,8β)-8-Hydroxy-8-methyl-2-[4-(2,2,2-trifluoro-ethyl)-phenyl]-2-aza-spiro[4.5]decan-1-one] | 900 nM
17 | CC[C@]1(O)CC[C@]2(CCN(c3ccc(CC(F)(F)F)cc3)C2=O)CC1 [Example 79, (5α,8α)-8-Ethyl-8-hydroxy-2-[4-(2,2,2-trifluoro-ethyl)-phenyl]-2-aza-spiro[4.5]decan-1-one] | 30 nM
18 | CC[C@]1(O)CC[C@@]2(CCN(c3ccc(CC(F)(F)F)cc3)C2=O)CC1 [Example 80, (5α,8β)-8-Ethyl-8-hydroxy-2-[4-(2,2,2-trifluoro-ethyl)-phenyl]-2-aza-spiro[4.5]decan-1-one] | 910 nM
19 | CCC[C@]1(O)CC[C@]2(CCN(c3ccc(CC(F)(F)F)cc3)C2=O)CC1 [Example 81, (5α,8α)-8-Hydroxy-8-propyl-2-[4-(2,2,2-trifluoro-ethyl)-phenyl]-2-aza-spiro[4.5]decan-1-one] | 20 nM
20 | CCC[C@]1(O)CC[C@@]2(CCN(c3ccc(CC(F)(F)F)cc3)C2=O)CC1 [Example 82, (5α,8β)-8-Hydroxy-8-propyl-2-[4-(2,2,2-trifluoro-ethyl)-phenyl]-2-aza-spiro[4.5]decan-1-one] | 460 nM
21 | CCCc1ccc(N2CC[C@]3(CC[C@@](O)(CC)CC3)C2=O)cc1 [Example 83, (5α,8α)-8-Ethyl-8-hydroxy-2-(4-propyl-phenyl)-2-aza-spiro[4.5]decan-1-one] | 70 nM
22 | CCCc1ccc(N2CC[C@]3(CC[C@](O)(CC)CC3)C2=O)cc1 [Example 84, (5α,8β)-8-Ethyl-8-hydroxy-2-(4-propyl-phenyl)-2-aza-spiro[4.5]decan-1-one] | 4300 nM
23 | O=C1N(c2ccc(OCC(F)(F)F)cc2)CC[C@]12CC[C@@H](O)CC2 [Example 85, (5α,8β)-8-Hydroxy-2-[4-(2,2,2-trifluoro-ethoxy)-phenyl]-2-aza-spiro[4.5]decan-1-one] | 2290 nM
24 | C[C@]1(O)CC[C@]2(CCN(c3ccc(OCC(F)(F)F)cc3)C2=O)CC1 [Example 86, (5α,8α)-8-Hydroxy-8-methyl-2-[4-(2,2,2-trifluoro-ethoxy)-phenyl]-2-aza-spiro[4.5]decan-1-one] | 130 nM
25 | C[C@]1(O)CC[C@@]2(CCN(c3ccc(OCC(F)(F)F)cc3)C2=O)CC1 [Example 87, (5α,8β)-8-Hydroxy-8-methyl-2-[4-(2,2,2-trifluoro-ethoxy)-phenyl]-2-aza-spiro[4.5]decan-1-one] | 3820 nM
26 | CC[C@]1(O)CC[C@]2(CCN(c3ccc(OCC(F)(F)F)cc3)C2=O)CC1 [Example 88, (5α,8α)-8-Ethyl-8-hydroxy-2-[4-(2,2,2-trifluoro-ethoxy)-phenyl]-2-aza-spiro[4.5]decan-1-one] | 42 nM
27 | CC[C@]1(O)CC[C@@]2(CCN(c3ccc(OCC(F)(F)F)cc3)C2=O)CC1 [Example 89, (5α,8β)-8-Ethyl-8-hydroxy-2-[4-(2,2,2-trifluoro-ethoxy)-phenyl]-2-aza-spiro[4.5]decan-1-one] | 3190 nM
28 | COCCC[C@]1(O)CC[C@]2(CCN(c3ccc(OC(F)(F)F)cc3)C2=O)CC1 [Example 90, (5α,8α)-8-Hydroxy-8-(3-methoxy-propyl)-2-(4-trifluoromethoxy-phenyl)-2-aza-spiro[4.5]decan-1-one] | 23 nM
29 | COCCC[C@]1(O)CC[C@@]2(CCN(c3ccc(OC(F)(F)F)cc3)C2=O)CC1 [Example 91, (5α,8β)-8-Hydroxy-8-(3-methoxy-propyl)-2-(4-trifluoromethoxy-phenyl)-2-aza-spiro[4.5]decan-1-one] | 896 nM
